Measurements taken from patent US11845760B2, “PRMT5 inhibitors” (AMGEN INC., priority 2020, dated 2023).

Key:
HCT116 MTAP null cells = experiment: HCT116 MTAP null cell line proliferation (CellTiter-Glo cell viability, 6 days); type: cell-based; conditions: HCT116 MTAP null cells, 6 days of treatment, CellTiter-Glo cell viability; read-out: HCT-116 MTAP null IC50
How it was run: (§1)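 Isogenic HCT116 pair (both MTAP alleles knocked out vs parent) in RPMI 1640 + 10% FBS, seeded overnight at 37° C, 5% CO2, then exposed 6 days to 8- or 9-point 1:3 dilutions from 1 or 10 μM. CellTiter-Glo luminescence; IC50 from sigmoidal fit, Hill slope fixed −1, top 100%, or 4-parameter logistic.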

HCT116 WT cells = experiment: HCT116 WT cell line proliferation (CellTiter-Glo cell viability, 6 days); type: cell-based; conditions: HCT116 WT (parent) cells, 6 days of treatment, CellTiter-Glo cell viability; read-out: HCT-116 WT IC50
How it was run: as §1

Row | IC50 (HCT116 MTAP null cells) [nM] | IC50 (HCT116 WT cells) [µM] | Substance
1 | 683 | 15.6 | (4-amino-7-fluoro-1,3- dihydrofuro[3,4-c]quinolin-8- yl)((3R)-3-hydroxy-3-(4- (trifluoromethyl)phenyl)-1- pyrrolidinyl)methanone and (4-amino-7-fluoro-1,3- dihydrofuro[3,4-c]quinolin-8- yl)((3S)-3-hydroxy-3-(4- (trifluoromethyl)phenyl)-1- pyrrolidinyl)methanone [Example 441]
2 | 11 | 0.24 | (4-amino-7-fluoro-1-methyl- 1H-pyrazolo[4,3-c]quinolin- 8-yl)((4R)-3,3-dimethyl-4-(4- (trifluoromethyl)phenyl)-1- pyrrolidinyl)methanone and (4-amino-7-fluoro-1-methyl- 1H-pyrazolo[4,3-c]quinolin- 8-yl)((4S)-3,3-dimethyl-4-(4- (trifluoromethyl)phenyl)-1- pyrrolidinyl)methanone [Example 445]
